What was measured:
[1] = test system: oilseed rape; experiment: Test C postemergence; assay type: in vivo, Brassica napus; settings: for Plant response rating (scale of 0 to 100 where 0 is no effect and 100 is complete control), Oilseed Rape: Postemergence, 31 g ai/ha, visually evaluated after 13 to 15 days; for Oilseed Rape plant response rating / Plant response rating, Oilseed Rape: postemergence; for Oilseed Rape plant response rating: 62 g ai/ha, scale 0 to 100
Summary of the method: (§1)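 Pre- and postemergence greenhouse screen; vehicle was a non-phytotoxic solvent mix with surfactant. Preemergence: treatment applied right after sowing into loam and sand. Postemergence: treated at 1–4 leaves. Visual rating at 13–15 days, 100 = complete control.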

[2] = test system: corn; experiment: Test A postemergence; assay type: in vivo, Zea mays
Summary of the method: (§2)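 Growth medium: loam soil blended with sand. Preemergence treatment used a directed soil spray right after planting; postemergence treatment targeted seedlings at one to two leaves (2–10 cm height). Response was judged by eye relative to untreated plants about 10 days later on a 0–100 control scale.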

[3] = test system: barnyardgrass; experiment: Test C preemergence; assay type: in vivo, Echinochloa crus-galli; settings: for Plant response rating (scale of 0 to 100), Barnyardgrass: Preemergence, 250 g ai/ha
Summary of the method: as §1

[4] = test system: oat, wild; experiment: Test C postemergence; assay type: in vivo, Avena fatua; settings: for Plant response rating (scale of 0 to 100 where 0 is no effect and 100 is complete control), Oat, Wild: Postemergence, 31 g ai/ha, visually evaluated after 13 to 15 days; for Oat, Wild plant response rating / Plant response rating, Oat, Wild: postemergence; for Oat, Wild plant response rating: 62 g ai/ha, scale 0 to 100
Summary of the method: as §1

[5] = test system: morningglory; experiment: Test A preemergence; assay type: in vivo, Ipomoea spp.; settings: preemergence
Summary of the method: as §2

[6] = test system: pigweed; experiment: Test C postemergence; assay type: in vivo, Amaranthus retroflexus; settings: for Plant response rating (scale of 0 to 100 where 0 is no effect and 100 is complete control), Pigweed: Postemergence, 31 g ai/ha, visually evaluated after 13 to 15 days; for Pigweed plant response rating / Plant response rating, Pigweed: postemergence; for Pigweed plant response rating: 62 g ai/ha, scale 0 to 100
Summary of the method: as §1

[7] = test system: foxtail, giant; experiment: Test A preemergence; assay type: in vivo, Setaria faberii; settings: preemergence
Summary of the method: as §2

[8] = test system: galium; experiment: Test C preemergence; assay type: in vivo, Galium aparine; settings: for Plant response rating (scale of 0 to 100), Galium: Preemergence, 250 g ai/ha
Summary of the method: as §1

[9] = test system: barnyardgrass; experiment: Test A postemergence; assay type: in vivo, Echinochloa crus-galli
Summary of the method: as §2

[10] = test system: barnyardgrass; experiment: Test C postemergence; assay type: in vivo, Echinochloa crus-galli; settings: for Plant response rating (scale of 0 to 100 where 0 is no effect and 100 is complete control), Barnyardgrass: Postemergence, 31 g ai/ha, visually evaluated after 13 to 15 days; for Barnyardgrass plant response rating / Plant response rating, Barnyardgrass: postemergence; for Barnyardgrass plant response rating: 62 g ai/ha, scale 0 to 100
Summary of the method: as §1

[11] = test system: corn; experiment: Test A preemergence; assay type: in vivo, Zea mays; settings: preemergence
Summary of the method: as §2

[12] = test system: lambsquarters; experiment: Test C postemergence; assay type: in vivo, Chenopodium album; settings: for Plant response rating (scale of 0 to 100 where 0 is no effect and 100 is complete control), Lambsquarters: Postemergence, 31 g ai/ha, visually evaluated after 13 to 15 days; for Lambsquarters plant response rating / Plant response rating, Lambsquarters: postemergence; for Lambsquarters plant response rating: 62 g ai/ha, scale 0 to 100
Summary of the method: as §1

[13] = test system: velvetleaf; experiment: Test A postemergence; assay type: in vivo, Abutilon theophrasti
Summary of the method: as §2

[14] = test system: chickweed; experiment: Test C postemergence; assay type: in vivo, Stellaria media; settings: for Plant response rating (scale of 0 to 100 where 0 is no effect and 100 is complete control), Chickweed: Postemergence, 31 g ai/ha, visually evaluated after 13 to 15 days; for Chickweed plant response rating / Plant response rating, Chickweed: postemergence; for Chickweed plant response rating: 62 g ai/ha, scale 0 to 100
Summary of the method: as §1

[15] = test system: morningglory; experiment: Test C postemergence; assay type: in vivo, Ipomoea coccinea; settings: for Plant response rating (scale of 0 to 100 where 0 is no effect and 100 is complete control), Morningglory: Postemergence, 31 g ai/ha, visually evaluated after 13 to 15 days; for Morningglory plant response rating / Plant response rating, Morningglory: postemergence; for Morningglory plant response rating: 62 g ai/ha, scale 0 to 100
Summary of the method: as §1

[16] = test system: velvetleaf; experiment: Test C postemergence; assay type: in vivo, Abutilon theophrasti; settings: for Plant response rating (scale of 0 to 100 where 0 is no effect and 100 is complete control), Velvetleaf: Postemergence, 31 g ai/ha, visually evaluated after 13 to 15 days; for Velvetleaf plant response rating / Plant response rating, Velvetleaf: postemergence; for Velvetleaf plant response rating: 62 g ai/ha, scale 0 to 100
Summary of the method: as §1

[17] = 250 g ai/ha, scale 0 to 100 (0 no effect, 100 complete control)
[18] = 125 g ai/ha, scale 0 to 100, 0 no effect, 100 complete control
[19] = Postemergence, 500 g ai/ha, visual rating after approx. 10 days, 0 to 100 scale (0 no effect, 100 complete control)
[20] = postemergence, 125 g ai/ha, about 10 days, visual rating on 0 to 100 scale (0 no effect, 100 complete control)
[21] = preemergence, 31 g ai/ha, scale 0 to 100 (0 no effect, 100 complete control), 13 to 15 days
[22] = preemergence, 62 g ai/ha, scale 0 to 100 (0 no effect, 100 complete control), 13 to 15 days
[23] = preemergence, 125 g ai/ha, scale 0 to 100, 0 is no effect, 100 is complete control
[24] = 125 g ai/ha, visual injury, 0 to 100 scale, approx. 10 days
[25] = 500 g ai/ha, visual injury after approx. 10 days, 0 to 100 scale (0 no effect, 100 complete control)
[26] = preemergence, 31 g ai/ha, visual rating, scale 0 to 100 (0 no effect, 100 complete control), 13 to 15 days
[27] = Postemergence, 500 g ai/ha, 0 to 100 scale (0 no effect, 100 complete control)
[28] = preemergence, 125 g ai/ha, 13 to 15 days, scale 0 to 100, 0 = no effect, 100 = complete control

CCCNC(=O)c1cc(CC)n(Cc2nc(C(F)(F)F)nn2C)n1 [Compound 109]
Plant response rating (scale of 0 to 100 where 0 is no effect and 100 is complete control), Oilseed Rape [1]: 40 | Oilseed Rape plant response rating [1]: 45 | Plant response rating, Oilseed Rape [1, 17]: 50 | Plant response rating, Oilseed Rape [1, 18]: 45 | Corn plant response rating [2, 19]: 90 | Corn plant response rating [2, 20]: 80 | Plant response rating (scale of 0 to 100), Barnyardgrass [3]: 100 | Barnyardgrass plant response rating [3, 21]: 100 | Barnyardgrass plant response rating [3, 22]: 100 | Barnyardgrass plant response rating [3, 23]: 100 | Plant response rating (scale of 0 to 100 where 0 is no effect and 100 is complete control), Oat, Wild [4]: 0 | Oat, Wild plant response rating [4]: 5 | Plant response rating, Oat, Wild [4, 17]: 5 | Plant response rating, Oat, Wild [4, 18]: 5 | Morningglory plant response rating [5, 24]: 100 | Morningglory plant response rating [5, 25]: 100 | Plant response rating (scale of 0 to 100 where 0 is no effect and 100 is complete control), Pigweed [6]: 10 | Pigweed plant response rating [6]: 40 | Plant response rating, Pigweed [6, 17]: 65 | Plant response rating, Pigweed [6, 18]: 65 | Foxtail, Giant plant response rating [7, 24]: 100 | Foxtail, Giant plant response rating [7, 25]: 100 | Plant response rating (scale of 0 to 100), Galium [8]: 100 | Galium plant response rating [8, 26]: 10 | Galium plant response rating [8, 22]: 100 | Galium plant response rating [8, 23]: 100 | Barnyardgrass plant response rating [9, 19]: 90 | Barnyardgrass plant response rating [9, 20]: 90 | Plant response rating (scale of 0 to 100 where 0 is no effect and 100 is complete control), Barnyardgrass [10]: 5 | Barnyardgrass plant response rating [10]: 5 | Plant response rating, Barnyardgrass [10, 17]: 20 | Plant response rating, Barnyardgrass [10, 18]: 10 | Corn plant response rating [11, 24]: 60 | Corn plant response rating [11, 25]: 80 | Plant response rating (scale of 0 to 100 where 0 is no effect and 100 is complete control), Lambsquarters [12]: 45 | Lambsquarters plant response rating [12]: 45 | Plant response rating, Lambsquarters [12, 17]: 85 | Plant response rating, Lambsquarters [12, 18]: 65 | Velvetleaf plant response rating [13, 19]: 90 | Velvetleaf plant response rating [13, 20]: 60 | Plant response rating (scale of 0 to 100 where 0 is no effect and 100 is complete control), Chickweed [14]: 40 | Chickweed plant response rating [14]: 50 | Plant response rating, Chickweed [14, 17]: 65 | Plant response rating, Chickweed [14, 18]: 55 | Plant response rating (scale of 0 to 100 where 0 is no effect and 100 is complete control), Morningglory [15]: 65 | Morningglory plant response rating [15]: 70 | Plant response rating, Morningglory [15, 17]: 85 | Plant response rating, Morningglory [15, 18]: 75 | Plant response rating (scale of 0 to 100 where 0 is no effect and 100 is complete control), Velvetleaf [16]: 10 | Velvetleaf plant response rating [16]: 15 | Plant response rating, Velvetleaf [16, 17]: 35 | Plant response rating, Velvetleaf [16, 18]: 25

CCONC(=O)c1cc(CC)n(Cc2ccnc(OC(F)F)c2)n1 [Compound 131]
Plant response rating (scale of 0 to 100 where 0 is no effect and 100 is complete control), Oilseed Rape [1]: 30 | Oilseed Rape plant response rating [1]: 35 | Plant response rating, Oilseed Rape [1, 17]: 60 | Plant response rating, Oilseed Rape [1, 18]: 40 | Corn plant response rating [2, 27]: 100 | Corn plant response rating [2, 20]: 80 | Plant response rating (scale of 0 to 100), Barnyardgrass [3]: 100 | Barnyardgrass plant response rating [3, 21]: 55 | Barnyardgrass plant response rating [3, 22]: 95 | Plant response rating, Barnyardgrass [3, 28]: 100 | Plant response rating (scale of 0 to 100 where 0 is no effect and 100 is complete control), Oat, Wild [4]: 5 | Oat, Wild plant response rating [4]: 10 | Plant response rating, Oat, Wild [4, 17]: 10 | Plant response rating, Oat, Wild [4, 18]: 15 | Morningglory plant response rating [5, 24]: 100 | Morningglory plant response rating [5, 25]: 100 | Plant response rating (scale of 0 to 100 where 0 is no effect and 100 is complete control), Pigweed [6]: 35 | Pigweed plant response rating [6]: 65 | Plant response rating, Pigweed [6, 17]: 98 | Plant response rating, Pigweed [6, 18]: 90 | Foxtail, Giant plant response rating [7, 24]: 90 | Foxtail, Giant plant response rating [7, 25]: 100 | Plant response rating (scale of 0 to 100), Galium [8]: 98 | Galium plant response rating [8, 26]: 55 | Galium plant response rating [8, 22]: 75 | Plant response rating, Galium [8, 28]: 75 | Barnyardgrass plant response rating [9, 27]: 90 | Barnyardgrass plant response rating [9, 20]: 80 | Plant response rating (scale of 0 to 100 where 0 is no effect and 100 is complete control), Barnyardgrass [10]: 5 | Barnyardgrass plant response rating [10]: 5 | Plant response rating, Barnyardgrass [10, 17]: 45 | Plant response rating, Barnyardgrass [10, 18]: 10 | Corn plant response rating [11, 24]: 60 | Corn plant response rating [11, 25]: 90 | Plant response rating (scale of 0 to 100 where 0 is no effect and 100 is complete control), Lambsquarters [12]: 15 | Lambsquarters plant response rating [12]: 40 | Plant response rating, Lambsquarters [12, 17]: 85 | Plant response rating, Lambsquarters [12, 18]: 65 | Velvetleaf plant response rating [13, 27]: 100 | Velvetleaf plant response rating [13, 20]: 90 | Plant response rating (scale of 0 to 100 where 0 is no effect and 100 is complete control), Chickweed [14]: 70 | Chickweed plant response rating [14]: 70 | Plant response rating, Chickweed [14, 17]: 80 | Plant response rating, Chickweed [14, 18]: 70 | Plant response rating (scale of 0 to 100 where 0 is no effect and 100 is complete control), Morningglory [15]: 35 | Morningglory plant response rating [15]: 55 | Plant response rating, Morningglory [15, 17]: 70 | Plant response rating, Morningglory [15, 18]: 65 | Plant response rating (scale of 0 to 100 where 0 is no effect and 100 is complete control), Velvetleaf [16]: 5 | Velvetleaf plant response rating [16]: 25 | Plant response rating, Velvetleaf [16, 17]: 55 | Plant response rating, Velvetleaf [16, 18]: 35
